# According to patent US10294234B2, “HIV inhibitor compounds” (priority 2017, dated 2019):
# Test system: HIV-1 (IIIB) in MT-4 cells
# Assay: MT-4 HIV assay
# Type: cell-based
# Settings: HIV-1 (IIIB), MT-4 cells, 5 days, Cell Titer Glo; read-out: EC50
# Outline: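 MT-4 cells infected with HIV-1 IIIB (1:250 stock dilution) were incubated with 1:3 serially diluted compounds in RPMI with 10% FBS for 5 days at 37 °C. Cell Titer Glo luminescence was the readout. Plates included mock-infected wells, no-drug wells and 5 uM AZT controls.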
row,Compound,EC50 [nM]
1,"methyl ((5S,8S,9S,14S)-11-(2-chloro-6-fluoro-(pyridin-2-yl)benzyl)-16-fluoro-5-(1-fluoro-2-methylpropan-2-yl)-9-hydroxy-15,15-dimethyl-3,6,13-trioxo-8-(4-((6-(8-(2,2,2-trifluoroethyl)-3,8-diazabicyclo[3.2.1]octan-3-yl)pyridin-3-yl)ethynyl)benzyl)-2-oxa-4,7,11,12-tetraazahexadecan-14-yl)carbamate [Example 244]",19.5

# Same assay, conditions: Human immunodeficiency virus 1, MT4, 120 h
row,Compound,EC50 [nM]
1,COC(=O)N[C@H](C(=O)N[C@@H](Cc1ccc(C#Cc2ccc(N3CCN(C(C)=O)CC3)nc2)cc1)[C@@H](O)CN(Cc1c(F)cc(-c2ccn(C)n2)cc1F)NC(=O)[C@@H](NC(=O)OC)C(C)(C)C)C(C)(C)C [Example 228],1.66
2,"COC(=O)N[C@H](C(=O)N[C@H](C(=O)N[C@@H](Cc1ccc(C#Cc2cnc(N3CC4CC(C3)N4C3COC3)nc2)cc1)[C@@H](O)CN(Cc1c(F)cc(-c2ccn(CC(F)F)n2)cc1F)NC(=O)[C@@H](NC(=O)OC)C(C)(C)C)C(C)(C)C)C(C)C [Example 222, Methyl ((5S,8S,11S,12S,17S)-8-(tert-butyl)-14-(4-(1-(2,2-difluoroethyl)-1H-pyrazol-3-yl)-2,6-difluorobenzyl)-12-hydroxy-5-isopropyl-18,18-dimethyl-11-(4-((2-(6-(oxetan-3-yl)-3,6-diazabicyclo[3.1.1]heptan-3-yl)pyrimidin-5-yl)ethynyl)benzyl)-3,6,9,16-tetraoxo-2-oxa-4,7,10,14,15-pentaazanonadecane-17-yl)carbamate]",12.9
3,"COC(=O)N[C@H](C(=O)N[C@H](C(=O)N[C@@H](Cc1ccc(C#Cc2cnc(N3CC4CC(C3)N4C3COC3)nc2)cc1)[C@@H](O)CN(Cc1c(F)cc(-c2ccn(CC(F)F)n2)cc1F)NC(=O)[C@@H](NC(=O)OC)C(C)(C)C)C(C)(C)C)C(C)(C)C [Example 223, Methyl ((5S,8S,11S,12S,17S)-5,8-di-tert-butyl-14-(4-(1-(2,2-difluoroethyl)-1H-pyrazol-3-yl)-2,6-difluorobenzyl)-12-hydroxy-18,18-dimethyl-11-(4-((2-(6-(oxetan-3-yl)-3,6-diazabicyclo[3.1.1]heptan-3-yl)pyrimidin-5-yl)ethynyl)benzyl)-3,6,9,16-tetraoxo-2-oxa-4,7,10,14,15-pentaazanonadecane-17-yl)carbamate]",12.9

# Same assay, conditions: Human immunodeficiency virus 1, MT4, 120 h; HIV-1 (IIIB), MT-4 cells, 5 days, Cell Titer Glo; read-out: EC50
row,Compound,EC50 [nM]
1,"COC(=O)N[C@H](C(=O)N[C@@H](Cc1ccc(C#Cc2ccc(N3CC4CCC(C3)N4C3COC3)nc2)cc1)[C@@H](O)CN(Cc1c(F)cc(C2COC2)cc1F)NC(=O)[C@@H](NC(=O)OC)C(C)(C)C(F)(F)F)C(C)(C)C(F)(F)F [Example 83, Methyl ((5S,8S,9S,14S)-11-(2,6-difluoro-4-(oxetan-3-yl)benzyl)-16,16,16-trifluoro-9-hydroxy-15,15-dimethyl-8-(4-((6-(8-(oxetan-3-yl)-3,8-diazabicyclo[3.2.1]octan-3-yl)pyridin-3-yl)ethynyl)benzyl)-3,6,13-trioxo-5-(1,1,1-trifluoro-2-methylpropan-2-yl)-2-oxa-4,7,11,12-tetraazahexadecan-14-yl)carbamate]",17.2
2,"COC(=O)N[C@H](C(=O)N[C@@H](Cc1ccc(C#Cc2ccc(N3C[C@H]4C[C@@H]3CN4C3COC3)nc2)cc1)[C@@H](O)CN(Cc1c(F)cc(-c2ccc(F)cn2)cc1F)NC(=O)[C@@H](NC(=O)OC)C(C)(C)C(F)(F)F)C(C)(C)C(F)(F)F [Example 135, Methyl ((5S,10S,11S,14S)-8-(2,6-difluoro-4-(5-fluoropyridin-2-yl)benzyl)-16,16,16-trifluoro-10-hydroxy-15,15-dimethyl-11-(4-((6-((1R,4R)-5-(oxetan-3-yl)-2,5 diazabicyclo[2.2.1]heptan-2-yl)pyridin-3-yl)ethynyl)benzyl)-3,6,13-trioxo-5-(1,1,1-trifluoro-2-methylpropan-2-yl)-2-oxa-4,7,8,12-tetraazahexadecan-14-yl)carbamate]",3.64
3,"COC(=O)N[C@H](C(=O)N[C@@H](Cc1ccc(C#Cc2ccc(N3CC4CC(CN(c5ccccn5)C4)C3)nc2)cc1)[C@@H](O)CN(Cc1c(F)cc(-c2cnn(C(F)F)c2)cc1F)NC(=O)[C@@H](NC(=O)OC)C(C)(C)C(F)(F)F)C(C)(C)C(F)(F)F [Example 66, Methyl ((5S,8S,9S,14S)-11-(4-(1-(difluoromethyl)-1H-pyrazol-4-yl)-2,6-difluorobenzyl)-16,16,16-trifluoro-9-hydroxy-15,15-dimethyl-3,6,13-trioxo-8-(4-((6-(7-(pyridin-2-yl)-3,7-diazabicyclo[3.3.1]nonan-3-yl)pyridin-3-yl)ethynyl)benzyl)-5-(1,1,1-trifluoro-2-methylpropan-2-yl)-2-oxa-4,7,11,12-tetraazahexadecan-14-yl)carbamate]",14.5
4,"COC(=O)N[C@H](C(=O)NN(Cc1c(F)cc(-c2cn(C(F)F)cn2)cc1F)C[C@H](O)[C@H](Cc1ccc(C#Cc2cnc(N3CC4CCC(C3)N4C3COC3)nc2)cc1)NC(=O)[C@@H](NC(=O)OC)C(C)(C)C(F)(F)F)C(C)(C)C [Example 2, Methyl ((5S,8S,9S,14S)-11-(4-(1-(difluoromethyl)-1H-imidazol-4-yl)-2,6-difluorobenzyl)-9-hydroxy-15,15-dimethyl-8-(4-((2-(8-(oxetan-3-yl)-3,8-diazabicyclo[3.2.1]octan-3-yl)pyrimidin-5-yl)ethynyl)benzyl)-3,6,13-trioxo-5-(1,1,1-trifluoro-2-methylpropan-2-yl)-2-oxa-4,7,11,12-tetraazahexadecan-14-yl)carbamate]",2.64
5,"COC(=O)N[C@H](C(=O)N[C@@H](Cc1ccc(C#Cc2ccc(N3CCN4CCOC[C@H]4C3)nc2)cc1)[C@@H](O)CN(Cc1c(F)cc(-c2cc(F)ccn2)cc1F)NC(=O)[C@@H](NC(=O)OC)C(C)(C)C(F)(F)F)C(C)(C)C(F)(F)F [Example 137, Methyl ((5S,8S,9S,14S)-11-(2,6-difluoro-4-(4-fluoropyridin-2-yl)benzyl)-16,16,16-trifluoro-8-(4-((6-((R)-hexahydropyrazino[2,1-c][1,4]oxazin-8(1H)-yl)pyridin-3-yl)ethynyl)benzyl)-9-hydroxy-15,15-dimethyl-3,6,13-trioxo-5-(1,1,1-trifluoro-2-methylpropan-2-yl)-2-oxa-4,7,11,12-tetraazahexadecan-14-yl)carbamate]",3.31
6,"COC(=O)N[C@H](C(=O)N[C@@H](Cc1ccc(C#Cc2cnc(N3CC4CCC(C3)N4C3COC3)c(C)c2)cc1)[C@@H](O)CN(Cc1c(F)cc(-c2ccn(C(F)F)n2)cc1F)NC(=O)[C@@H](NC(=O)OC)C(C)(C)C(F)(F)F)C(C)(C)C(F)(F)F [Example 150, Methyl ((5S,8S,9S,14S)-11-(4-(1-(difluoromethyl)-1H-pyrazol-3-yl)-2,6-difluorobenzyl)-16,16,16-trifluoro-9-hydroxy-15,15-dimethyl-8-(4-((5-methyl-6-(8-(oxetan-3-yl)-3,8-diazabicyclo[3.2.1]octan-3-yl)pyridin-3-yl)ethynyl)benzyl)-3,6,13-trioxo-5-(1,1,1-trifluoro-2-methylpropan-2-yl)-2-oxa-4,7,11,12-tetraazahexadecan-14-yl)carbamate]",5.86
7,"COC(=O)N[C@H](C(=O)N[C@@H](Cc1ccc(C#Cc2ccc(N3CC4CCC(C3)N4C3COC3)nc2C)cc1)[C@@H](O)CN(Cc1c(F)cc(-c2ccn(C(F)F)n2)cc1F)NC(=O)[C@@H](NC(=O)OC)C(C)(C)C(F)(F)F)C(C)(C)C(F)(F)F [Example 152, Methyl ((5S,8S,9S,14S)-11-(4-(1-(difluoromethyl)-1H-pyrazol-3-yl)-2,6-difluorobenzyl)-16,16,16-trifluoro-9-hydroxy-15,15-dimethyl-8-(4-((2-methyl-6-(8-(oxetan-3-yl)-3,8-diazabicyclo[3.2.1]octan-3-yl)pyridin-3-yl)ethynyl)benzyl)-3,6,13-trioxo-5-(1,1,1-trifluoro-2-methylpropan-2-yl)-2-oxa-4,7,11,12-tetraazahexadecan-14-yl)carbamate]",6.16
8,"COC(=O)N[C@H](C(=O)N[C@@H](Cc1ccc(C#Cc2ccc(N3C[C@H]4C[C@@H]3CN4C3COC3)nc2)cc1)[C@@H](O)CN(Cc1ccc(-c2ccn(C3CC3)n2)cc1)NC(=O)[C@@H](NC(=O)OC)C(C)(C)C(F)(F)F)C(C)(C)C(F)(F)F [Example 28, Methyl ((5S,8S,9S,14S)-11-(4-(1-cyclopropyl-1H-pyrazol-3-yl)benzyl)-16,16,16-trifluoro-9-hydroxy-15,15-dimethyl-8-(4-((6-((1R,4R)-5-(oxetan-3-yl)-2,5-diazabicyclo[2.2.1]heptan-2-yl)pyridin-3-yl)ethynyl)benzyl)-3,6,13-trioxo-5-(1,1,1-trifluoro-2-methylpropan-2-yl)-2-oxa-4,7,11,12-tetraazahexadecan-14-yl)carbamate]",4.56
9,"COC(=O)N[C@H](C(=O)N[C@@H](Cc1ccc(C#Cc2ccc(N3CC4CCC(C3)N4C(=O)[C@@H]3CCCO3)nc2)cc1)[C@@H](O)CN(Cc1c(F)cc(-c2ccn(C)n2)cc1F)NC(=O)[C@@H](NC(=O)OC)C(C)(C)C)C(C)(C)C [Example 227, Methyl ((5S,8S,9S,14S)-5-(tert-butyl)-11-(2,6-difluoro-4-(1-methyl-1H-pyrazol-3-yl)benzyl)-9-hydroxy-15,15-dimethyl-3,6,13-trioxo-8-(4-((6-(8-((S)-tetrahydrofuran-2-carbonyl)-3,8-diazabicyclo[3.2.1]octan-3-yl)pyridin-3-yl)ethynyl)benzyl)-2-oxa-4,7,11,12-tetraazahexadecan-14-yl)carbamate]",2.9
10,"COC(=O)N[C@H](C(=O)NN(Cc1ccc(-c2cnn(C3CC3)c2)cc1)C[C@H](O)[C@H](Cc1ccc(C#Cc2ccc(N3CC4CCC(C3)N4C3COC3)nc2)cc1)NC(=O)[C@@H](NC(=O)OC)C(C)(C)C(F)(F)F)C(C)(C)C [Example 117, Methyl ((5S,8S,9S,14S)-11-(4-(1-cyclopropyl-1H-pyrazol-4-yl)benzyl)-9-hydroxy-15,15-dimethyl-8-(4-((6-(8-(oxetan-3-yl)-3,8-diazabicyclo [3.2.1]octan-3-yl)pyridin-3-yl)ethynyl)benzyl)-3,6,13-trioxo-5-(1,1,1-trifluoro-2-methylpropan-2-yl)-2-oxa-4,7,11,12-tetraazahexadecan-14-yl)carbamate]",4.15
